The values that follow come from ChEMBL document CHEMBL1128980, “(R)-3-(6-chloro-1-isopropylbenzimidazole-4-carboxamido)quinuclidine: A high affinity ligand for the (R)-zacopride binding site” (Bioorg Med Chem Lett, 1996).

Test [1] deals with 5-hydroxytryptamine receptor 4 (Cavia porcellus, UniProt O70528). Nature of the test: Binding affinity for 5-hydroxytryptamine 4 receptor by displacement of [3H]GR-113808 from guinea pig brain striatum. (Loss of bound radioactivity is the signal in a displacement assay; it reports binding, not function.)
Test [2] addresses T1, 5-hydroxytryptamine receptor 3A (Homo sapiens, UniProt P46098).
T1 sequence (P46098 whole entry): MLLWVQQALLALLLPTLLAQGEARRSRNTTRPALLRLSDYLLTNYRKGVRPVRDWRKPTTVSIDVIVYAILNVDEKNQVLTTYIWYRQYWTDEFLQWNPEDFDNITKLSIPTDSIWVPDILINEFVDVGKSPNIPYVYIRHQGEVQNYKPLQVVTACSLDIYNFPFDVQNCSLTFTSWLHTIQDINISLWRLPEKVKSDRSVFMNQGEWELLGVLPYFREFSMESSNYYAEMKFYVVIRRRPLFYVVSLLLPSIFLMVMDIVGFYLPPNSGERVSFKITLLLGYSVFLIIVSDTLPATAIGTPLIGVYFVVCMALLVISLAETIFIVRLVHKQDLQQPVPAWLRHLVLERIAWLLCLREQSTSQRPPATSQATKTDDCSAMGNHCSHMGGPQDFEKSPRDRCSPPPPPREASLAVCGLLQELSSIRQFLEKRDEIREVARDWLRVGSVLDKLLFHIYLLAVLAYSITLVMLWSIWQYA
Nature of the test: Binding affinity for 5-hydroxytryptamine 3 receptor by displacement of [3H](R)-zacopride from ondansetron-treated NG-108-15 cell membranes.

The target in test [3] is T1, 5-hydroxytryptamine receptor 3A. The experiment in a line: Binding affinity for 5-hydroxytryptamine 3 receptor by displacement of [3H]-BRL 43694 from NG-108-15 cell membranes.
The target of test [4] is T2, Serotonin 3 (5-HT3) receptor (Rattus norvegicus, UniProt P35563+Q9JJ16).
T2 sequence (P35563 whole entry): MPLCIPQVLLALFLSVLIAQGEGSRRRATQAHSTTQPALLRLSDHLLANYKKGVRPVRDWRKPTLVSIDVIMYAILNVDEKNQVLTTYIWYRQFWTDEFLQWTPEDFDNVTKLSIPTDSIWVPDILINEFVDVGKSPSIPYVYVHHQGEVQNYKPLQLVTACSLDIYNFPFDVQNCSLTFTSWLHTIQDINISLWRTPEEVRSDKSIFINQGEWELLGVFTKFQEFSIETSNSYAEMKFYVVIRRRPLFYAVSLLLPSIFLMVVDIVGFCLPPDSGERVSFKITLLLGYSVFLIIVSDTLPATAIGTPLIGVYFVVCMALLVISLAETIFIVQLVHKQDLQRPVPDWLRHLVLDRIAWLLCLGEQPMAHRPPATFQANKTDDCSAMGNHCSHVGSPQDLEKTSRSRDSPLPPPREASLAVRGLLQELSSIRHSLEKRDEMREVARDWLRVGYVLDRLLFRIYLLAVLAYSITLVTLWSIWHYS
T2 sequence (Q9JJ16 whole entry): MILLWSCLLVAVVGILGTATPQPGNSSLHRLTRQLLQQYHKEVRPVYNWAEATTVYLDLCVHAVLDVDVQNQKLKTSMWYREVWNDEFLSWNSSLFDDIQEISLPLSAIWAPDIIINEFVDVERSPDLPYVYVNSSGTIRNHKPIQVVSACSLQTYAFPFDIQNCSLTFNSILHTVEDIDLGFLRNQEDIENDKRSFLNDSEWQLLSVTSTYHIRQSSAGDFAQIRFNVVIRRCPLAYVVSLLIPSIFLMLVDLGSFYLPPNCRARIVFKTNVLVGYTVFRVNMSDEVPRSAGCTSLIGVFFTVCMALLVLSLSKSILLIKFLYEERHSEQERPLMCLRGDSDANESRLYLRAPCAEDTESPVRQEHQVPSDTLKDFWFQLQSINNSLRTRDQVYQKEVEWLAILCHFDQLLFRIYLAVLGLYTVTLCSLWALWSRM
The experiment in a line: Binding affinity for 5-hydroxytryptamine 3 receptor by displacement of racemic [3H]zacopride from rat cortex.

Chain of 5-hydroxytryptamine receptor 4 (O70528 whole entry): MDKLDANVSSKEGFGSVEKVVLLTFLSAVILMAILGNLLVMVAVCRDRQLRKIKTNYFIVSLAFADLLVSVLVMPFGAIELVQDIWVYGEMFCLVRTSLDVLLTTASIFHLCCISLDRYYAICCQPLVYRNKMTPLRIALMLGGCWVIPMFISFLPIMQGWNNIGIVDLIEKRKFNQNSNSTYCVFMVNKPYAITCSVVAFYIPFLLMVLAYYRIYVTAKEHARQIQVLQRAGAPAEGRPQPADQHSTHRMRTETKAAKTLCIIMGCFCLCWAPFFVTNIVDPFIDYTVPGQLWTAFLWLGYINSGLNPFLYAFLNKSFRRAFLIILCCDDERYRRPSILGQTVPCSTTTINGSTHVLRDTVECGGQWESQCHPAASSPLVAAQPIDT

`COc1cc(N)c(Cl)cc1C(=O)N[C@@H]1CN2CCC1CC2` gave a Ki in test [1] of 0.437 µM.
Regarding `CC(C)n1cnc2c(C(=O)NC3CC4CCC(C3)N4C)cc(Cl)cc21` (configuration not stated), the figures for the Ki in test [1], in test [2] and in test [3] were 0.158 µM, 0.02 µM and 0.001 µM, respectively.
With `COc1cc(N)c(Cl)cc1C(=O)N[C@H]1CN2CCC1CC2` [(R)ZACOPRIDE], the values for the Ki in test [1] and in test [4] were 2.82 µM and 0.00372 µM, respectively.
The compound `CC(C)n1cnc2c(C(=O)N[C@H]3CN4CCC3CC4)cc(Cl)cc21` had a Ki in test [1] of 0.024 µM.

The Ki is a dissociation constant, usually derived from enzyme kinetics or from competition with a known ligand. Lower therefore signals tighter binding.
